According to patent US12077483B2, “Modified amine lipids” (Intellia Therapeutics, Inc., priority 2018, dated 2024):

Key:
[1] = pKa of amine lipid by TNS fluorescence; format: physicochemical; conditions: probe TNS (6-(p-toluidino)-2-naphthalenesulfonic acid sodium salt), unformulated amine lipid in ethanol, sodium phosphate buffers -9.0
Procedure, shortened: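 Unformulated amine lipid, about 100 μM final, in 0.1 M sodium phosphate buffers spanning pH 4.5–9.0 with TNS. Fluorescence read at ex 321/em 448 nm; normalized data fitted sigmoidally to give pKa.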

[2] = LNP average particle size and polydispersity by dynamic light scattering; format: physicochemical; conditions: Table 13; LNP sgRNA:Cas9 mRNA 1:2 w/w, N/P 6.0
Procedure, shortened: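 LNPs were diluted in PBS to a count rate of about 200-400 kcps and measured by DLS on a Zetasizer. Size is the intensity-weighted Z-average diameter, reported with number-average diameter, and the polydispersity index describes the spread of sizes around the mean.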

TTR in HUH7 cells = assay: In vitro editing in HUH7 cells, LNP with Cas9 mRNA and sgRNA G000502, NGS; format: cell-based, human; conditions: Table 14; 2000 ng RNA per well, cells harvested 6 hours post-transfection, biological duplicate, G000502 target locus
Method: A series of compounds based on Compound 46 that vary by the inclusion of a C4-12 alkyl at the R^3 position of Formula (IA) (as illustrated in FIG. 13A) were tested for in vitro editing. The human hepatocellular carcinoma cell line […] (Japanese Collection of Research Bioresources Cell Bank, Cat. JCRB0403) was cultured in DMEM media supplemented with 10% fetal bovine serum and 1% Penicillin-Streptomycin. Cells were plated at a density of 20,000 cells/well in a 96-well plate 24 hours prior to transfection (˜80% confluent at time of transfection). The LNPs were formulated at a 1:2 w/w ratio of sgRNA and Cas9 mRNA using the cross flow procedure with lipid molar compositions as described in Table 13 at an N/P ratio of 6.0. LNP compositions were analyzed for average particle size, polydispersity (pdi), total RNA content and encapsulation efficiency of RNA as described in Example 115. Analysis of average particle size, polydispersity (PDI), total RNA content and encapsulation efficiency of RNA are shown in Table 13. LNPs were diluted into media, incubated for 5 minutes at 37 C and pipetted onto cells at a dose of 2000 ng RNA per well. Each condition was assayed in biological duplicate. Cells were harvested post-transfection at 6 hours. Genomic DNA was extracted using 50 μL/well BuccalAmp DNA Extraction solution (Epicentre, Cat. QE09050) according to manufacturer's protocol. All DNA samples were subjected to PCR and subsequent NGS analysis for editing at the G000502 target locus, as described above. As shown in Table 14 and FIG. 13B, all compounds tested were efficacious for in vitro editing.

[3] = RNA encapsulation efficiency of LNP (Ribogreen fluorescence assay); format: physicochemical; conditions: Table 13; LNP sgRNA:Cas9 mRNA 1:2 w/w, N/P 6.0
Procedure, shortened: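 LNP samples diluted in 1× TE with or without 0.2% Triton-X 100 for total or free RNA, stained ~10 min at room temperature in the dark with RiboGreen; fluorescence ex 488/em 525 nm against RNA standard curves. Encapsulation efficiency = (Total RNA−Free RNA)/Total RNA.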

mouse TTR = assay: Serum TTR ELISA in mice after LNP delivery; format: in vivo
Procedure, shortened: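 Female CD-1 mice received LNP at 0.1 mpk unless noted; serum was collected 6 or 7 days later. Total serum TTR was measured by mouse prealbumin ELISA at 10,000- and/or 2,500-fold dilution and is expressed as a percentage of vehicle control.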

mouse TTR gene = assay: In vivo editing in mouse liver, LNP with Cas9 mRNA and sgRNA G282, NGS; conditions: Table 3; guide G282; CD-1 female mice, 0.1 mpk i.v., liver at 6 or 7 days; Exp. 1, 8, 9, 10
Method: LNPs were prepared using various amine lipids in a 4-component lipid system consisting of an ionizable lipid (e.g. an amine lipid), DSPC, cholesterol and PEG-2k-DMG. In assays for percent liver editing in mice, Cas9 mRNA and chemically modified sgRNA targeting a mouse sequence were formulated in LNPs, at either a 1:1 w/w ratio or a 1:2 w/w ratio.
The lipid components were dissolved in 100% ethanol with the lipid component molar ratios described below. The chemically modified sgRNA and Cas9 mRNA were combined and dissolved in 25 mM citrate, 100 mM NaCl, pH 5.0, resulting in a concentration of total RNA cargo of approximately 0.45 mg/mL. The LNPs were formulated with an N/P ratio of about 6, with the ratio of chemically modified sgRNA: Cas9 mRNA at either a 1:1 or 1:2 w/w ratio as described below.
CD-1 female mice, ranging from 6-10 weeks of age were used in each study. Animals were weighed and grouped according to body weight for preparing dosing solutions based on group average weight. LNPs were dosed via the lateral tail vein in a volume of 0.2 mL per animal (approximately 10 mL per kilogram body weight). The animals were periodically observed for adverse effects for at least 24 hours post dose.
For studies measuring in vivo editing in liver, CD-1 female mice were dosed at 0.1 mpk unless otherwise noted. Animals were euthanized at 6 or 7 days by exsanguinationvia cardiac puncture under isoflourane anesthesia. Liver tissue was collected from each animal for DNA extraction and analysis. Blood was collected into serum separator tubes or into tubes containing buffered sodium citrate for plasma as described herein. Cohorts of mice were measured for editing by Next-Generation Sequencing (NGS).
In brief, to quantitatively determine the efficiency of editing at the target location in the genome, genomic DNA was isolated and deep sequencing was utilized to identify the presence of insertions and deletions introduced by gene editing.
PCR primers were designed around the target site (e.g., B2M), and the genomic area of interest was amplified. Additional PCR was performed according to the manufacturer's protocols (Illumina) to add the necessary chemistry for sequencing. The amplicons were sequenced on an Illumina MiSeq instrument. The reads were aligned to the relevant reference genome (e.g., GRCm38) after eliminating those having low quality scores. The resulting files containing the reads were mapped to the reference genome (BAM files), where reads that overlapped the target region of interest were selected and the number of wild type reads versus the number of reads which contain an insertion, substitution, or deletion was calculated.
The editing percentage (e.g., the “editing efficiency” or “percent editing”) is defined as the total number of sequence reads with insertions or deletions over the total number of sequence reads, including wild type.
We assessed in vivo editing efficiency for materials delivered with formulations including various amine lipid compounds. Editing was measured using either G282 (SEQ ID No: 1) which targets the mouse TTR gene or G650 (SEQ ID No. 2) which targets the mouse B2M gene. Lipids described above were assessed for efficacy through in vivo editing experiments. LNPs were formulated at a 1:1 w/w ratio of sgRNA to Cas9 mRNA, and at an N/P ratio of about 6. Molar concentrations of lipids in the lipid component of the LNPs are expressed as mol % amine lipid/DSPC/cholesterol/PEG-2k-DMG, e.g. 50/10/38.5/1.5. The final LNPs were characterized to determine the encapsulation efficiency, polydispersity index, and average particle size according to the analytical methods provided above. Analysis of average particle size, polydispersity (PDI), total RNA content and encapsulation efficiency of RNA are shown in Table 2.
To assess whether the editing was dose responsive, experiments were performed in vivo at various LNP dose levels. […]

SMILES	pKa [1]	Number Average [nm] [2] [nm]	PDI [2]	Z-Ave Size (nm) [2] [nm]	Editing (TTR in HUH7 cells) [%]	% E [3] [%]	Serum TTR % TSS (mouse TTR; mouse serum, relative to TSS control of same experiment, dose 0.03 mpk) [% TSS]	Serum TTR % TSS (mouse TTR; mouse serum, relative to TSS control of same experiment, dose 0.1 mpk) [% TSS]	Serum TTR (mouse TTR; Table 3, guide G282, CD-1 female mice, 0.1 mpk i.v., Exp. 1, 8, 9, 10) [µg/mL]	Serum TTR % TSS (mouse TTR; Table 3, guide G282, CD-1 female mice, 0.1 mpk i.v., percentage of vehicle control (TSS)) [% TSS]	Editing Mean % Indel (mouse TTR gene) [%]
CCCCC/C=C\C/C=C\CCCCCCCC(=O)OCC(COC(=O)CCCCCCC/C=C\C/C=C\CCCCC)OC(=O)CCC(CCCCCCCCCCCC)OC(=O)NCCN1CCCC1 (centres unmarked) [Compound 46, 2-((4-(((2-(pyrrolidin-1l-yl)ethyl)carbamoyl)oxy)hexadecanoyl)oxy)propane-1,3-diyl (9Z,9′Z,12Z,12′Z)-bis(octadeca-9,12-dienoate)]	6.16	76.76	0.003	94.54	63.7	99					
CCCCC/C=C\C/C=C\CCCCCCCC(=O)OCC(COC(=O)CCCCCCC/C=C\C/C=C\CCCCC)OC(=O)CCC(CCCCCCC)OC(=O)NCCN1CCCC1 (centres unmarked) [Compound 76, 2-((4-(((2-(pyrrolidin-1l-yl)ethyl)carbamoyl)oxy)undecanoyl)oxy)propane-1,3-diyl (9Z,9′Z,12Z,12′Z)-bis(octadeca-9,12-dienoate)]	6.74				61.2		69.72	12.79			
CCCCC/C=C\C/C=C\CCCCCCCC(=O)OCC(COC(=O)CCCCCCC/C=C\C/C=C\CCCCC)OC(=O)CCC(CCCCCCCCCCCC)OC(=O)NCCCN(C)C (centres unmarked) [Compound 8, 2-((4-(((3-(dimethylamino)propyl)carbamoyl)oxy)hexadecanoyl)oxy)propane-1,3-diyl]	7.54								745	84	0.1
CCCCC/C=C\C/C=C\CCCCCCCC(=O)OCC(COC(=O)CCCCCCC/C=C\C/C=C\CCCCC)OC(=O)CCC(CCCC)OC(=O)NCCN1CCCC1 (centres unmarked) [Compound 85, 2-((4-(((2-(pyrrolidin-1-yl)ethyl)carbamoyl)oxy)octanoyl)oxy)propane-1,3-diyl (9Z,9′Z,12Z,12′Z)-bis(octadeca-9,12-dienoate)]	7.02	93.05	0.045	117.1	66.4	96					
